Like-named read-outs stand apart in the source and are kept apart here.
Key:
[1] = cited from earlier work
[2] = system: Enterococcus faecalis—S613 HM-334; experiment: MIC of CAIs in BHIB and TSB; type: cell-based; conditions: Enterococcus, read-out: MIC
Procedure: The minimum inhibitory concentrations (MICs) of CAIs were tested against clinical isolates of vancomycin sensitive and vancomycin resistant Enterococci strains as per the guidelines provided by the Clinical and Laboratory Standards Institute (CLSI). The selected strains of Enterococci were streaked on Tryptic Soy Agar (TSA) plates and let grow for 24 hours at 37° C. Afterwards, a bacterial solution equivalent to 0.5 McFarland standard was prepared and diluted in tryptone soy broth (TSB) or brain heart infusion broth (BHIB) to achieve a bacterial concentration of about 5×10^5 CFU/mL and seeded in 96-well well plates. Compounds and control drugs were added in the first row of the 96-well plates and serially diluted along the plates. Plates were then incubated aerobically at 37° C. for 18-20 hours. MICs reported in Table 5 are the minimum concentration of the compounds/control drugs that could inhibit completely the visual growth of the bacteria. The MIC values of CAIs against the tested VRE strains were higher in BHIB than in TSB. This may be due to binding of these drugs to proteins. […] They inhibited the VRE strains at MIC values ranging from 1 to 4 μg/mL.

[3] = cited from earlier work; remark: listed apart in the source
[4] = system: vancomycin-resistant E. faecium; experiment: Mouse model of GI colonization by VRE; type: in vivo, C57BL/6 mice
Text: Feasibility in vivo study: AZM reduces VRE load in the intestines and faeces. The promising feature, and the specific and potent antimicrobial activity of CAIs, prompted us to evaluate the in vivo efficacy of AZM in our established mouse model of GI colonization by enterococci with features that mimic the antibiotic-induced enterococcal expansion observed in humans (Mohammad, H. et al., Int J Antimicrob Agents 2018, 51, 897-904; Abdelkhalek, A, et al., PLoS One 2018, 13, e0199710). We tested AZM (two clinical doses 10 and 20 mg/kg) in female 12-week-old C57BL/6 mice (n=5 mice per group) that were sensitized with ampicillin ([…] in drinking water) for 7 days to reduce the microbiota present in the gastrointestinal tract and colonized with 10^8 CFU/mL of vancomycin-resistant E. faecium.
We thought that the rapid absorption of AZM from the gastrointestinal tract would limit their exposure time to VRE present in the gastrointestinal tract.
Mice were treated for 8 days with 10 mg/kg of drugs by oral gavage.

[5] = system: Enterococcus faecium E417-HM-965; experiment: MIC of CAIs in BHIB and TSB; type: cell-based; conditions: Enterococcus faecium, read-out: MIC
Procedure: (§1) The minimum inhibitory concentrations (MICs) of CAIs were tested against clinical isolates of vancomycin sensitive and vancomycin resistant Enterococci strains as per the guidelines provided by the Clinical and Laboratory Standards Institute (CLSI). The selected strains of Enterococci were streaked on Tryptic Soy Agar (TSA) plates and let grow for 24 hours at 37° C. Afterwards, a bacterial solution equivalent to 0.5 McFarland standard was prepared and diluted in tryptone soy broth (TSB) or brain heart infusion broth (BHIB) to achieve a bacterial concentration of about 5×10^5 CFU/mL and seeded in 96-well well plates. Compounds and control drugs were added in the first row of the 96-well plates and serially diluted along the plates. Plates were then incubated aerobically at 37° C. for 18-20 hours. MICs reported in Table 5 are the minimum concentration of the compounds/control drugs that could inhibit completely the visual growth of the bacteria.

[6] = system: Enterococcus fecalis Strain SF 24397 NR31970; experiment: MIC of CAIs in BHIB and TSB; type: cell-based; conditions: Enterococcus, read-out: MIC
Procedure: as §1

[7] = system: Enterococcus faecium Patient #2-1-NR-31909; experiment: MIC of CAIs in BHIB and TSB; type: cell-based; conditions: Enterococcus faecium, read-out: MIC
Procedure: as §1

[8] = system: E. faecium NR 31909; conditions: oral 20 mg/kg daily for 4 days
Text: Saline was used as a negative control. Mice were euthanized on day 5 and organs (liver, spleen and kidneys) were aseptically removed and homogenized, and viable VRE were enumerated by serial dilution and plating.

| SMILES | oral LD50 (mouse) [1] | MIC ([2]; BHIIB) | MIC ([2]; TSB, Table 5) | time to peak plasma concentrations ([3]; after oral administration) | serum concentration ([3]; after single oral dose) | VRE decolonization compared with linezolid ([4]; AZM 10 and 20 mg/kg, linezolid 10 mg/kg once daily for 8 days) | VRE in feces, cecal content and ileal content compared to control mice ([4]; once a day at 10 mg/kg or 20 mg/kg, feces as early as 3rd day) | MIC ([5]; E417HM965, BHIB) | MIC ([5]; E417HM965, TSB, Table 5) | MIC ([6]; BHIB) | MIC ([6]; TSB, Table 5) | MIC ([7]; BHIB) | MIC ([7]; TSB, Table 5) | mice protected against a lethal dose (survival) ([8]; from two hours after challenge) | reduction of bacterial load in internal organs ([8]; liver, spleen, kidneys on day 5) |
| --- | --- | --- | --- | --- | --- | --- | --- | --- | --- | --- | --- | --- | --- | --- | --- |
| CC(=O)Nc1nnc(S(N)(=O)=O)s1 [Acetazolamide, reference compound] | 4300 mg/kg | > 128 mg/L | 2 mg/L | 1 to 3 h | 20 to 100 µg/mL | outperformed linezolid | significant reduction | 8 mg/L | 2 mg/L | > 128 mg/L | 2 mg/L | 64 mg/L | 2 mg/L | 100% | superior to linezolid |
| CC(=O)NC[C@H]1CN(c2ccc(N3CCOCC3)c(F)c2)C(=O)O1 [Linezolid, reference compound] |  | 1 mg/L | 1 mg/L |  |  |  |  |  |  |  | 1 mg/L |  |  |  |  |

From US12378211B2, “Carbonic anhydrase inhibitors and antibiotics against multidrug resistant bacteria” (Purdue Research Foundation, priority 2018, dated 2025)
